{"source": "patent US20240279190A1", "about": "“COMPOUNDS FOR MODULATING PLATELET-TYPE 12-(S)-LIPOXYGENASE AND METHODS OF USE FOR SAME” (The Regents of The University of California, priority 2021, published 2024)", "key": {"[1]": {"molecular_target": "T1, 12-LOX mutant L407G/A417I/V418M (Homo sapiens, UniProt P18054, A417I/L407G/V418M)", "T1 construct": "6xHis (N); made in house; pFastBac1 shuttle vector", "T1 sequence (P18054 1-663 L407G/A417I/V418M)": "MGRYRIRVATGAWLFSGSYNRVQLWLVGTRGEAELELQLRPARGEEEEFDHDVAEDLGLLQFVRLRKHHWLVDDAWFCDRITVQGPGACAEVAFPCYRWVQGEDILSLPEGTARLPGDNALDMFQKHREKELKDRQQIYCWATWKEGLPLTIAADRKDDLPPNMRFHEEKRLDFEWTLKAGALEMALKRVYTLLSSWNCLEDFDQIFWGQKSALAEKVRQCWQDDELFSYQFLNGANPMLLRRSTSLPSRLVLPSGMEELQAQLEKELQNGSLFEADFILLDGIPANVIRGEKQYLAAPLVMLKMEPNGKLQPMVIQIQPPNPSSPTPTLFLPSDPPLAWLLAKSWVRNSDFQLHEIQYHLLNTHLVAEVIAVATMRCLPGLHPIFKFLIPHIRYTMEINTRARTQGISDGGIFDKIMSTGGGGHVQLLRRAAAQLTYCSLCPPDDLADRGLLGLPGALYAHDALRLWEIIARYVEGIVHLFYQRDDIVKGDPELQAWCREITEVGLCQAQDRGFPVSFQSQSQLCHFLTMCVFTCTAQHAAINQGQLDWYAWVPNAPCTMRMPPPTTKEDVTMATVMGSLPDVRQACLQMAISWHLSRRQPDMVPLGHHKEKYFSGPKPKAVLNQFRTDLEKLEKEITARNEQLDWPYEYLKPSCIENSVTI", "assay": "UV-Vis-based IC50 assay, L407G/A417I/V418M mutant", "assay_type": "biochemical", "from_the_text": "(§1) Based on the ML355 binding mode predicted by the modeling, all residues within 5 Å of any atom of ML355 were selected for experimental mutagenesis. The selected residues were replaced with amino acids with either bulkier or smaller side chains in order to determine what specific interactions play a role in inhibitor binding. […] The numbering refers to the UniProt accession number P18054 sequence, with the N-terminal methionine assigned as amino acid number one. The primers for all mutants were designed using the online QuikChange Primer Design tool (http://www.genomics.agilent.com/primerDesignProgram.jsp) from Agilent Technologies (CA, USA). The mutations were introduced by using the QuikChange® II XL site-directed mutagenesis kit from Agilent, following the instructions in the protocol provided. […]\n(§2) The wild type 12-LOX (wt-12-LOX) enzyme and its mutants were expressed as fusion proteins, with an N-terminal 6×His tag, and were affinity purified by nickel-iminodiacetic acid agarose using FPLC (Biorad).\n(§3) The percent inhibition was determined by comparing the enzyme rates of the control (DMSO solvent) and the inhibitor sample by following the formation of the conjugated diene product at 234 nm (ε=25,000 M^−1cm^−1). […] The substrate concentration was quantitatively determined by allowing the enzymatic reaction to go to completion in the presence of soybean LOX-1. […]"}, "[2]": {"molecular_target": "T2, 12-LOX mutant A417I/V418M (Homo sapiens, UniProt P18054, A417I/V418M)", "T2 construct": "6xHis (N); made in house; pFastBac1 shuttle vector", "T2 sequence (P18054 1-663 A417I/V418M)": "T1 sequence (P18054 1-663 L407G/A417I/V418M) with G407L", "assay": "UV-Vis-based IC50 assay, A417I/V418M mutant", "assay_type": "biochemical", "from_the_text": "as §1, §2, §3"}}, "note": "Positions count from the first letter of the chain named.", "data": [{"smiles": "COc1cccc(CNc2ccc(S(=O)(=O)Nc3nc4c(ccc5ccccc54)s3)cc2)c1O", "note": "[Compound LOX-12-001, 4-((2-hydroxy-3-methoxybenzyl)amino)-N-(naphtho[1,2-d]thiazol-2-yl)benzenesulfonamide]", "values": [{"measurement": "IC50", "setting": "[1]", "value": "> 150000", "unit": "nM"}, {"measurement": "inhibition at 20 µM", "setting": "[1]; 20 uM inhibitor, read-out: Percent inhibition at 20 uM inhibitor", "value": 10, "unit": "%"}, {"measurement": "IC50", "setting": "[2]; A417I/V418M", "value": "120 ± 40", "unit": "nM"}, {"measurement": "fold decrease in potency (increase in IC50) compared to wt12-LOX", "setting": "[2]; A417I/V418M vs wt12-LOX", "value": 2.4, "unit": "fold"}]}]}
